Assay results taken from ChEMBL document CHEMBL3046563, “Synthesis and antihypertensive activity evaluation in spontaneously hypertensive rats of nitrendipine analogues” (2011).

How the values were obtained:
Format in all cases: functional, Artery
Conditions in all cases: route intragastric
Rattus norvegicus [1] = test: Antihypertensive activity in spontaneously hypertensive Rattus norvegicus (rat) assessed as reduction of systolic blood pressure at 2 mg/kg, ig after 1 hr
Rattus norvegicus [2] = test: Antihypertensive activity in spontaneously hypertensive Rattus norvegicus (rat) assessed as reduction of systolic blood pressure at 2 mg/kg, ig after 4 hr
Rattus norvegicus [3] = test: Antihypertensive activity in spontaneously hypertensive rat assessed as reduction of systolic blood pressure at 2 mg/kg, ig after 2 hr
Rattus norvegicus [4] = test: Antihypertensive activity in spontaneously hypertensive Rattus norvegicus (rat) assessed as reduction of systolic blood pressure at 1 mg/kg, ig after 2 hr
Rattus norvegicus [5] = test: Antihypertensive activity in spontaneously hypertensive Rattus norvegicus (rat) assessed as reduction of systolic blood pressure at 1 mg/kg, ig after 1 hr
Rattus norvegicus [6] = test: Antihypertensive activity in spontaneously hypertensive Rattus norvegicus (rat) assessed as reduction of systolic blood pressure at 4 mg/kg, ig after 8 hr
Rattus norvegicus [7] = test: Antihypertensive activity in spontaneously hypertensive Rattus norvegicus (rat) assessed as reduction of systolic blood pressure at 4 mg/kg, ig after 6 hr
Rattus norvegicus [8] = test: Antihypertensive activity in spontaneously hypertensive Rattus norvegicus (rat) assessed as reduction of systolic blood pressure at 4 mg/kg, ig after 4 hr
Rattus norvegicus [9] = test: Antihypertensive activity in spontaneously hypertensive Rattus norvegicus (rat) assessed as reduction of systolic blood pressure at 4 mg/kg, ig after 2 hr
Rattus norvegicus [10] = test: Antihypertensive activity in spontaneously hypertensive Rattus norvegicus (rat) assessed as reduction of systolic blood pressure at 4 mg/kg, ig after 1 hr

Compound	Activity (Rattus norvegicus [1]) [mmHg]	Activity (Rattus norvegicus [2]) [mmHg]	Activity (Rattus norvegicus [3]) [mmHg]	further results
CCCOC(=O)C1=C(C)NC(C)=C(C(=O)OC)C1c1cccc([N+](=O)[O-])c1 (configuration not stated)	43			
CCCCCCCOC(=O)C1=C(C)NC(C)=C(C(=O)OC)[C@@H]1c1cccc([N+](=O)[O-])c1	93	-2	47	
CCOC(=O)C1=C(C)NC(C)=C(C(=O)OC)C1c1cccc([N+](=O)[O-])c1 (stereo in doubt; 2) [NITRENDIPINE]		-2	8	Activity (Rattus norvegicus [4]): 0 mmHg; Activity (Rattus norvegicus [5]): 33 mmHg; Activity (Rattus norvegicus [1]; 2 mg/kg): 39 mmHg
CCCCCOC(=O)C1=C(C)NC(C)=C(C(=O)OC)C1c1cccc([N+](=O)[O-])c1 (configuration not stated)	44			
CCCCCCCOC(=O)C1=C(C)NC(C)=C(C(=O)OC)C1c1cccc([N+](=O)[O-])c1 (racemic)	52	-4	42	Activity (Rattus norvegicus [6]): 21 mmHg; Activity (Rattus norvegicus [7]): 45 mmHg; Activity (Rattus norvegicus [8]): 67 mmHg; Activity (Rattus norvegicus [9]): 107 mmHg; Activity (Rattus norvegicus [10]): 119 mmHg
CCCCCCCCCCOC(=O)C1=C(C)NC(C)=C(C(=O)OC)C1c1cccc([N+](=O)[O-])c1 (configuration not stated)	31			
CCCCCCCCCCCCOC(=O)C1=C(C)NC(C)=C(C(=O)OC)C1c1cccc([N+](=O)[O-])c1 (configuration not stated)	17			
CCOC(=O)C1=C(C)NC(C)=C(C(=O)OC)C1c1cccc([N+](=O)[O-])c1 (stereo in doubt; 1) [NITRENDIPINE]				Activity (Rattus norvegicus [1]; 2 mg/kg): 26 mmHg
CCCCCCCCOC(=O)C1=C(C)NC(C)=C(C(=O)OC)C1c1cccc([N+](=O)[O-])c1 (configuration not stated)	38			
